Drawing on ChEMBL document CHEMBL1147208, “Asymmetric synthesis of chiral piperazinylpropylisoxazoline ligands for dopamine receptors” (Eur J Med Chem, 2007), this text covers Ki for four compounds.

One assay addresses D(2) dopamine receptor (Homo sapiens, UniProt P14416). The assay is described as follows: Displacement of [3H]spiperone from human cloned dopamine receptor D2 long expressed in CHO cells. The class given is cell-based.
The next assay addresses D(3) dopamine receptor (Homo sapiens, UniProt P35462). The assay is described as follows: biochemical.
A further assay deals with T1, D(4) dopamine receptor (Homo sapiens, UniProt P21917).
T1 sequence (P21917 whole entry): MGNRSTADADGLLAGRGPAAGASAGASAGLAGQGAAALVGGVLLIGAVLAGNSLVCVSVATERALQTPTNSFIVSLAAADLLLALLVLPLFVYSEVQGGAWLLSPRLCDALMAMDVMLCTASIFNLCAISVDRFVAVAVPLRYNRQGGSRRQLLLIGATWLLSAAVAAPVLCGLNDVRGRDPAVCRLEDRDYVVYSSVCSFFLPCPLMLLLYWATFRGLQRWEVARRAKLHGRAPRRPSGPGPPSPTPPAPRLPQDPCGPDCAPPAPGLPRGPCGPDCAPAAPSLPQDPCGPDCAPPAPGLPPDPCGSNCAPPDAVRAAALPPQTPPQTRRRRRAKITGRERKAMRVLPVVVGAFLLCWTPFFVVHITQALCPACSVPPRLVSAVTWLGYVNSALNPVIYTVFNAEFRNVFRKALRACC
The assay is described as follows: Displacement of [3H]YM-09151-2 from human cloned dopamine D4 receptor expressed in CHO cells.

Sequence of D(3) dopamine receptor (P35462 whole entry): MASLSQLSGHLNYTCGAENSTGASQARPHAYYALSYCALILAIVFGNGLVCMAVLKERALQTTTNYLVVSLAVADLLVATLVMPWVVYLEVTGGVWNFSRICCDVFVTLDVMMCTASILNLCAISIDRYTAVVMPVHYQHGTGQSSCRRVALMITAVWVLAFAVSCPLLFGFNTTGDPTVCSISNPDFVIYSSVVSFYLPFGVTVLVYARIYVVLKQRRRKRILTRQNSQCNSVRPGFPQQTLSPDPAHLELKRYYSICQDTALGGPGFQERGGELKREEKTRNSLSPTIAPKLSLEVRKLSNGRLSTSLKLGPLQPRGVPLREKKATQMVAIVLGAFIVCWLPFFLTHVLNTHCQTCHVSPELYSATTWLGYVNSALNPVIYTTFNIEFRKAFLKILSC
Sequence of D(2) dopamine receptor (P14416 whole entry): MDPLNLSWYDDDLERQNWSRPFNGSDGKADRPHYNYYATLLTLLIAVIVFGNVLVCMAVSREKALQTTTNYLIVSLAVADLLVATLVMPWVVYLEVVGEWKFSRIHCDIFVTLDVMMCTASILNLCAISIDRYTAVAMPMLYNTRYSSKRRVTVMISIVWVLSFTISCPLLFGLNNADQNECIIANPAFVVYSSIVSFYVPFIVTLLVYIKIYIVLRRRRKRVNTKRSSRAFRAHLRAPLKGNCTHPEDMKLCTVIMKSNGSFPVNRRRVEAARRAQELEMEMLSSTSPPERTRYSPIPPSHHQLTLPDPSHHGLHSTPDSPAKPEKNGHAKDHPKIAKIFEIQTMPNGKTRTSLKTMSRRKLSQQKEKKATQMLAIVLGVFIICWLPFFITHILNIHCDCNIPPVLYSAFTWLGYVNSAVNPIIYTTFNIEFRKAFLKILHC
Description for D(3) dopamine receptor: Displacement of [3H]YM-09151-2 from human cloned dopamine D3 receptor expressed in CHO cells

One may read the Ki as a measure of affinity in units of concentration, obtained from inhibition or displacement. Turning to `COc1ccc(C2=NO[C@H](CCCN3CCN(C(c4ccc(F)cc4)c4ccc(F)cc4)CC3)C2)cc1OC`, the Ki on D(2) dopamine receptor was determined as 0.08 µM; on D(3) dopamine receptor it was 0.0021 µM; at D(4) dopamine receptor, 0.426 µM.
In the same order, the values of `CCOc1ccccc1N1CCN(CCC[C@@H]2CC(c3ccc(OC)c(OC)c3)=NO2)CC1` are 0.046 µM, 0.0021 µM and 0.507 µM.
In the same order, the values of `CCOc1ccccc1N1CCN(CCC[C@H]2CC(c3ccc(OC)c(OC)c3)=NO2)CC1` are 0.07 µM, 0.0051 µM and 0.225 µM.
For `COc1ccc(C2=NO[C@@H](CCCN3CCN(C(c4ccc(F)cc4)c4ccc(F)cc4)CC3)C2)cc1OC` the same measures were 0.4 µM, 0.02 µM and 0.483 µM.
